Laboratory results: patent publication US20200024278A1, “COMPOSITION COMPRISING ANTIBIOTIC COMPOUND AND AN HETEROCYCLIC COMPOUND AND THEIR USE IN PREVENTING OR TREATING BACTERIAL INFECTIONS” (MUTABILIS, priority 2016, published 2020)

Experiments:
Experiment in all cases: MIC, broth microdilution (CLSI), substance alone or ATB combined with compound at 4 or 8 μg/mL
ECO 190317 = assay type: cell-based, E. coli; details: ECO 190317; for MIC ATB combined with compound: compound @8 μg/ml
Method in brief: (§1)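 CLSI broth microdilution in cation-adjusted Mueller-Hinton broth, 5·10^5 CFU/mL log-phase inoculum, 16-20 h at 35 °C in ambient air. Fosfomycin assays supplemented with 25 μg/ml glucose-6-phosphate.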

ECO UFR39 = assay type: cell-based, E. coli; details: ECO UFR39; for MIC ATB combined with compound: compound @8 μg/ml
Method in brief: as §1

KPN 6299 = assay type: cell-based, K. pneumoniae; details: compound @8 μg/ml
Method in brief: as §1

KPN BAA-1898 = assay type: cell-based, K. pneumoniae; details: KPN BAA-1898; for MIC ATB combined with compound: compound @8 μg/ml
Method in brief: as §1

KPN UFR42 = assay type: cell-based, K. pneumoniae; details: KPN UFR42; for MIC ATB combined with compound: compound @8 μg/ml
Method in brief: as §1

ECL P99 = assay type: cell-based, E. cloacae; details: ECL P99; for MIC ATB combined with compound: compound @8 μg/ml
Method in brief: as §1

PAE 105250 = assay type: cell-based, P. aeruginosa; details: PAE 105250; for MIC ATB combined with compound: compound @8 μg/ml
Method in brief: as §1

PAE UFR48 = assay type: cell-based, P. aeruginosa; details: PAE UFR48; for MIC ATB combined with compound: compound @8 μg/ml
Method in brief: as §1

PAE UFR90 = assay type: cell-based, P. aeruginosa; details: PAE UFR90; for MIC ATB combined with compound: compound @8 μg/ml
Method in brief: as §1

SAU 29213 = assay type: cell-based, S. aureus; details: for MIC ATB combined with compound: compound @8 μg/ml, SAU 29213
Method in brief: as §1

SPN 49619 = assay type: cell-based, S. pneumoniae; details: SPN 49619; for MIC ATB combined with compound: compound @8 μg/ml
Method in brief: as §1

ABA 19606 = assay type: cell-based, A. baumannii; details: substance alone
Method in brief: as §1

ABA UFR159 = assay type: cell-based, A. baumannii; details: substance alone
Method in brief: as §1

SMILES: O=C(O)C(F)(F)F.O=C1N2C[C@H](c3scnc3[C@H]2c2ncc[nH]2)N1OS(=O)(=O)[O-].[Na+] (relative stereo) [Example 6, sodium and 2,2,2-trifluoroacetate [trans-7-(1H-imidazol-3-ium--2-yl)-9-oxo-3-thia-5,8,10-triaza-tricyclo[6.2.1.0^2,6]undeca-2(6),4-dien-10-yl]sulfate]
- MIC ATB combined with compound (ECO 190317; ATB ATM): <0.031 µg/mL
- MIC ATB combined with compound (ECO 190317; ATB FEP): <0.031 µg/mL
- MIC ATB combined with compound (ECO 190317; ATB FOS): <0.125 µg/mL
- MIC ATB combined with compound (ECO 190317; ATB MEM): <0.031 µg/mL
- MIC ATB combined with compound (ECO 190317; ATB PIP): <0.031 µg/mL
- MIC (ECO 190317; substance alone): 1 µg/mL
- MIC ATB combined with compound (ECO UFR39; ATB ATM): <0.031 µg/mL
- MIC ATB combined with compound (ECO UFR39; ATB FEP): <0.031 µg/mL
- MIC ATB combined with compound (ECO UFR39; ATB FOS): <0.125 µg/mL
- MIC ATB combined with compound (ECO UFR39; ATB MEM): <0.031 µg/mL
- MIC ATB combined with compound (ECO UFR39; ATB PIP): <0.031 µg/mL
- MIC (ECO UFR39; substance alone): 2 µg/mL
- MIC ATB combined with compound (KPN 6299; ATB ATM): <0.031 µg/mL
- MIC ATB combined with compound (KPN 6299; ATB FEP): <0.031 µg/mL
- MIC ATB combined with compound (KPN 6299; ATB FOS): 0.25 µg/mL
- MIC ATB combined with compound (KPN 6299; ATB MEM): <0.031 µg/mL
- MIC ATB combined with compound (KPN 6299; ATB PIP): <0.031 µg/mL
- MIC ATB combined with compound (KPN BAA-1898; ATB ATM): <0.031 µg/mL
- MIC ATB combined with compound (KPN BAA-1898; ATB FEP): <0.031 µg/mL
- MIC ATB combined with compound (KPN BAA-1898; ATB FOS): <=0.125 μg/mL
- MIC ATB combined with compound (KPN BAA-1898; ATB MEM): <0.031 µg/mL
- MIC ATB combined with compound (KPN BAA-1898; ATB PIP): <0.031 µg/mL
- MIC (KPN BAA-1898; substance alone): 4 µg/mL
- MIC ATB combined with compound (KPN UFR42; ATB ATM): <0.031 µg/mL
- MIC ATB combined with compound (KPN UFR42; ATB FEP): <0.031 µg/mL
- MIC ATB combined with compound (KPN UFR42; ATB FOS): <0.125 µg/mL
- MIC ATB combined with compound (KPN UFR42; ATB MEM): <0.031 µg/mL
- MIC ATB combined with compound (KPN UFR42; ATB PIP): <=0.031 μg/mL
- MIC (KPN UFR42; substance alone): 4 µg/mL
- MIC ATB combined with compound (ECL P99; ATB ATM): <0.031 µg/mL
- MIC ATB combined with compound (ECL P99; ATB FEP): <0.031 µg/mL
- MIC ATB combined with compound (ECL P99; ATB FOS): <0.125 µg/mL
- MIC ATB combined with compound (ECL P99; ATB MEM): <0.031 µg/mL
- MIC ATB combined with compound (ECL P99; ATB PIP): <0.031 µg/mL
- MIC (ECL P99; substance alone): 4 µg/mL
- MIC ATB combined with compound (PAE 105250; ATB ATM): 4 µg/mL
- MIC ATB combined with compound (PAE 105250; ATB FEP): 8 µg/mL
- MIC ATB combined with compound (PAE 105250; ATB FOS): 128 µg/mL
- MIC ATB combined with compound (PAE 105250; ATB MEM): 2 µg/mL
- MIC ATB combined with compound (PAE 105250; ATB PIP): >32 µg/mL
- MIC (PAE 105250; substance alone): >32 µg/mL
- MIC ATB combined with compound (PAE UFR48; ATB ATM): 8 µg/mL
- MIC ATB combined with compound (PAE UFR48; ATB FEP): 32 µg/mL
- MIC ATB combined with compound (PAE UFR48; ATB FOS): 32 µg/mL
- MIC ATB combined with compound (PAE UFR48; ATB MEM): 4 µg/mL
- MIC ATB combined with compound (PAE UFR48; ATB PIP): >32 µg/mL
- MIC (PAE UFR48; substance alone): >32 µg/mL
- MIC ATB combined with compound (PAE UFR90; ATB ATM): 8 µg/mL
- MIC ATB combined with compound (PAE UFR90; ATB FEP): 4 µg/mL
- MIC ATB combined with compound (PAE UFR90; ATB FOS): 8 µg/mL
- MIC ATB combined with compound (PAE UFR90; ATB MEM): 1 µg/mL
- MIC ATB combined with compound (PAE UFR90; ATB PIP): >32 µg/mL
- MIC (PAE UFR90; substance alone): >32 µg/mL
- MIC ATB combined with compound (SAU 29213; ATB ATM): >32 µg/mL
- MIC ATB combined with compound (SAU 29213; ATB FEP): <=0.031 μg/mL
- MIC ATB combined with compound (SAU 29213; ATB FOS): <=0.125 μg/mL
- MIC ATB combined with compound (SAU 29213; ATB MEM): <=0.031 μg/mL
- MIC ATB combined with compound (SAU 29213; ATB PIP): 0.063 µg/mL
- MIC (SAU 29213; substance alone, SAU 29213 (MSSA 29213)): >32 µg/mL
- MIC ATB combined with compound (SPN 49619; ATB ATM): <0.031 µg/mL
- MIC ATB combined with compound (SPN 49619; ATB FEP): <0.031 µg/mL
- MIC ATB combined with compound (SPN 49619; ATB FOS): <0.125 µg/mL
- MIC ATB combined with compound (SPN 49619; ATB MEM): <0.031 µg/mL
- MIC ATB combined with compound (SPN 49619; ATB PIP): <0.031 µg/mL
- MIC (SPN 49619; substance alone): 16 µg/mL
- MIC (ABA 19606): 16 µg/mL
- MIC (ABA UFR159): >32 µg/mL
